Drawing on ChEMBL document CHEMBL1157481, “Microwave-assisted synthesis of 5-aminopyrazol-4-yl ketones and the p38(MAPK) inhibitor RO3201195 for study in Werner syndrome cells” (Bioorg Med Chem Lett, 2008), this text covers Activity for one compound.

For the assay, the target named is Mitogen-activated protein kinase 9 (Homo sapiens) (UniProt P45984). Description: Inhibition of JNK2 in hTERT-immortalized human HCA2 cells assessed as c-jun phosphorylation upto 50 uM by ELISA in presence of anisomycin. The format is cell-based. Background: An ELISA detects its analyte on a solid surface through an enzyme-linked reagent.

Calls of active or inactive are those of the source. No cut-off for these calls is given here.

Sequence of Mitogen-activated protein kinase 9 (Homo sapiens) (P45984 whole entry, looked up): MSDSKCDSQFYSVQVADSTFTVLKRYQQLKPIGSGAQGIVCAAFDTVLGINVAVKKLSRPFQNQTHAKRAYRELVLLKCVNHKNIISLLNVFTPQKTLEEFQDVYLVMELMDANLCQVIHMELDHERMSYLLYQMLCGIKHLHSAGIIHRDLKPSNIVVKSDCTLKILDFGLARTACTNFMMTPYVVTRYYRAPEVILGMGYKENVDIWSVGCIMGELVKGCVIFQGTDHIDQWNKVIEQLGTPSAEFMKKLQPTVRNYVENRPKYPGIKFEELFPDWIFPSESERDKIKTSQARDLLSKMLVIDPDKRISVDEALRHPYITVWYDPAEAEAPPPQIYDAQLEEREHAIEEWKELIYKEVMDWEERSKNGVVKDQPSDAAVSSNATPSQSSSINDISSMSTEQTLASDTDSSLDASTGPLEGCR

Consider `Nc1c(C(=O)c2cccc(OC[C@@H](O)CO)c2)cnn1-c1ccc(F)cc1`, for which the result was inactive.
